Source: patent US9023821B2, “Use of MicroRNA for treating diseases associated with a dysfunction of the cilia in multiciliated epithelial cells” (Centre National de la Recherche Scientifique, priority 2009, dated 2015)

Columns and labels:
[1] = system: human airway epithelial cells (HAECs); test: High-throughput sequencing (HTS) of miRNAs at four stages of differentiation of HAECs; conditions: for Modulation (ratio of the level of intensity of expression in log2 in two stages of differentiation) measured by high-throughput sequencing, D7 − D0 / Modulation (ratio of the level of intensity of expression in log2 in two stages of differentiation) measured by high-throughput sequencing, FC − D7 / Modulation (ratio of the level of intensity of expression in log2 in two stages of differentiation) measured by high-throughput sequencing, WD − D0 / Modulation (ratio of the level of intensity of expression in log2 in two stages of differentiation) measured by high-throughput sequencing, WD − FC / Level of intensity of expression in log2 measured by high-throughput sequencing, D0 / Level of intensity of expression in log2 measured by high-throughput sequencing, D7 / Level of intensity of expression in log2 measured by high-throughput sequencing, FC / Level of intensity of expression in log2 measured by high-throughput sequencing, WD: Table VI; for Level of intensity of expression in log2 At the differentiated stage (WD) measured in HTS: healthy human airway epithelial tissue; for Level of intensity of expression in log2 measured by high-throughput sequencing, D0: stage D0; for Level of intensity of expression in log2 measured by high-throughput sequencing, D7: stage D7; for Level of intensity of expression in log2 measured by high-throughput sequencing, FC: stage FC; for Level of intensity of expression in log2 At the differentiated stage (WD) measured in HTS / Level of intensity of expression in log2 measured by high-throughput sequencing, WD: stage WD
Procedure, shortened: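 Small-RNA libraries from differentiating HAECs (ALI-D0 to ALI-WD) were built by ligation-based SOLiD chemistry, size-selected and sequenced. Strand counts were normalized per million reads, converted to percentage abundance, and filtered on adjusted P-value below 0.05.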

[2] = system: human airway epithelial cells (HAECs); test: Agilent miRNA chips, miRNA expression at four stages of differentiation of HAECs; conditions: for Modulation (ratio of the level of intensity of expression in log2 in two stages of differentiation) measured with the Agilent chips, D7 − D0 / Modulation (ratio of the level of intensity of expression in log2 in two stages of differentiation) measured with the Agilent chips, FC − D7 / Modulation (ratio of the level of intensity of expression in log2 in two stages of differentiation) measured with the Agilent chips, WD − D0 / Modulation (ratio of the level of intensity of expression in log2 in two stages of differentiation) measured with the Agilent chips, WD − FC / Level of intensity of expression in log2 measured with the Agilent chips, D0 / Level of intensity of expression in log2 measured with the Agilent chips, D7 / Level of intensity of expression in log2 measured with the Agilent chips, FC / Level of intensity of expression in log2 measured with the Agilent chips, WD: Table VI; for Level of intensity of expression in log2 measured with the Agilent chips, D0: stage D0; for Level of intensity of expression in log2 measured with the Agilent chips, D7: stage D7; for Level of intensity of expression in log2 measured with the Agilent chips, FC: stage FC; for Level of intensity of expression in log2 measured with the Agilent chips, WD: stage WD; for Modulation (ratio of the level of intensity of expression in log2 at two stages of differentiation), FC − D7 / Modulation (ratio of the level of intensity of expression in log2 at two stages of differentiation), WD − FC: Agilent miRNA chips, Table V
Procedure, shortened: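 Microarray v2 (866 human + 89 viral miRNAs; miRBase v.12.0). Input: RNA from the same donors as sequencing. Labelling/hybridization per kit protocol. Profiles cross-checked vs sequencing.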

[3] = system: basal cells and pyramidal cells of the airway epithelium; test: miRNA expression in sorted basal cells versus pyramidal cells (ciliated + secretory), HTS and Agilent chips; design: species or system human; conditions: for Modulation of expression of the miRNAs in pyramidal cells (323(−)) relative to basal cells 323(+): HTS and Agilent chips; for Intensity of the level of expression in log2 in pyramidal cells (323(−)): pyramidal cells (ciliated + secretory)
Procedure, shortened: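 Epithelium dissociated from nasal polyps is held 30 min in PBS-BSA-EDTA, then labelled 20 min at 4° C for CD151 and tissue factor. After DAPI staining, live single cells are sorted into marker-double-positive and double-negative fractions, and sort purity and identity are verified. Total RNA then undergoes miRNA profiling on arrays or by sequencing.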

| Substance | Modulation (ratio of the level of intensity of expression in log2 in two stages of differentiation) measured by high-throughput sequencing, D7 − D0 [1] [log2] | Modulation (ratio of the level of intensity of expression in log2 in two stages of differentiation) measured by high-throughput sequencing, FC − D7 [1] [log2] | Modulation (ratio of the level of intensity of expression in log2 in two stages of differentiation) measured by high-throughput sequencing, WD − D0 [1] [log2] | Modulation (ratio of the level of intensity of expression in log2 in two stages of differentiation) measured by high-throughput sequencing, WD − FC [1] [log2] | Level of intensity of expression in log2 At the differentiated stage (WD) measured in HTS [1] [log2] | Level of intensity of expression in log2 measured by high-throughput sequencing, D0 [1] [log2] | Level of intensity of expression in log2 measured by high-throughput sequencing, D7 [1] [log2] | Level of intensity of expression in log2 measured by high-throughput sequencing, FC [1] [log2] | Level of intensity of expression in log2 measured by high-throughput sequencing, WD [1] [log2] | Modulation (ratio of the level of intensity of expression in log2 in two stages of differentiation) measured with the Agilent chips, D7 − D0 [2] [log2] | Modulation (ratio of the level of intensity of expression in log2 in two stages of differentiation) measured with the Agilent chips, FC − D7 [2] [log2] | Modulation (ratio of the level of intensity of expression in log2 in two stages of differentiation) measured with the Agilent chips, WD − D0 [2] [log2] | Modulation (ratio of the level of intensity of expression in log2 in two stages of differentiation) measured with the Agilent chips, WD − FC [2] [log2] | Level of intensity of expression in log2 measured with the Agilent chips, D0 [2] [log2] | Level of intensity of expression in log2 measured with the Agilent chips, D7 [2] [log2] | Level of intensity of expression in log2 measured with the Agilent chips, FC [2] [log2] | Level of intensity of expression in log2 measured with the Agilent chips, WD [2] [log2] | Modulation of expression of the miRNAs in pyramidal cells (323(−)) relative to basal cells 323(+) [3] | Intensity of the level of expression in log2 in basal cells (323(+)) [3] [log2] | Intensity of the level of expression in log2 in pyramidal cells (323(−)) [3] [log2] | further results |
| --- | --- | --- | --- | --- | --- | --- | --- | --- | --- | --- | --- | --- | --- | --- | --- | --- | --- | --- | --- | --- | --- |
| hsa-miR-17: human miRNA, SEQ ID No. 11 (CAAAGUGCUUACAGUGCAGGUAG; expressed or natural sequence; listed as Homo sapiens) | −0.17 | −0.87 | −1.24 | −0.20 | 11.61 | 12.85 | 12.68 | 11.81 | 11.61 | 0.31 | −1.14 | −1.22 | −0.39 | 9.03 | 9.34 | 8.19 | 7.81 | −2.60 | 6.64 | 4.04 | Modulation (ratio of the level of intensity of expression in log2 in two stages of differentiation), D7 − D0 ([1]; HTS): −0.17 log2; Modulation (ratio of the level of intensity of expression in log2 in two stages of differentiation), FC − D7 ([1]; HTS): −0.87 log2; Modulation (ratio of the level of intensity of expression in log2 in two stages of differentiation), WD − FC ([1]; HTS): −0.20 log2; Abundance (%), D0 ([1]; HTS, ALI-D0): 1.61%; Abundance (%), D7 ([1]; HTS, ALI-D7): 1.44%; Abundance (%), FC ([1]; HTS, ALI-FC): 0.76%; Abundance (%), WD ([1]; HTS, ALI-WD): 0.50% |
| hsa-miR-200b: human miRNA, SEQ ID No. 17 (UAAUACUGCCUGGUAAUGAUGA; expressed or natural sequence; listed as Homo sapiens) | 0.76 | 0.56 | 2.36 | 1.03 | 10.64 | 8.60 | 9.37 | 9.93 | 10.96 | 2.01 | −0.07 | 2.11 | 0.17 | 9.93 | 11.94 | 11.87 | 12.04 | −0.15 | 9.99 | 9.84 | Modulation (ratio of the level of intensity of expression in log2 at two stages of differentiation), FC − D7 [2]: −0.07 log2; Modulation (ratio of the level of intensity of expression in log2 at two stages of differentiation), WD − FC [2]: 0.17 log2 |
| hsa-miR-939: human miRNA, SEQ ID No. 50 (UGGGGAGCUGAGGCUCUGGGGGUG; expressed or natural sequence; listed as Homo sapiens) | 0.13 | −0.13 | 0.00 | 0.00 | 5.43 | 0.01 | 0.15 | 0.01 | 0.01 | 1.40 | −0.63 | 0.70 | −0.07 | 6.64 | 8.04 | 7.41 | 7.34 | 1.28 | 4.81 | 6.08 | Modulation (ratio of the level of intensity of expression in log2 at two stages of differentiation), FC − D7 [2]: −0.63 log2; Modulation (ratio of the level of intensity of expression in log2 at two stages of differentiation), WD − FC [2]: −0.07 log2 |
| hsa-miR-30c: human miRNA, SEQ ID No. 34 (UGUAAACAUCCUACACUCUCAGC; expressed or natural sequence; listed as Homo sapiens) | 0.32 | −0.33 | −0.40 | −0.39 | 10.87 | 0.42 | 0.73 | 0.41 | 0.01 | 1.97 | −0.34 | 1.51 | −0.12 | 7.80 | 9.77 | 9.43 | 9.31 | −1.01 | 6.92 | 5.91 | Modulation (ratio of the level of intensity of expression in log2 at two stages of differentiation), FC − D7 [2]: −0.34 log2; Modulation (ratio of the level of intensity of expression in log2 at two stages of differentiation), WD − FC [2]: −0.12 log2 |
